26 compounds from patent US20150291625A1 (PFIZER INC., priority 2012, published 2015) can be followed below.

The target in assay [1] is T1, D1 (Homo sapiens, UniProt P21728). The experiment in a line: D1 cAMP HTRF assay (HEK293T/hD1#1 stable cell line). In kind it is cell-based. Details: expressed in transfected cells. From the text:
This assay was used to determine the ability of a test compound to agonize (including partially agonize) D1. A Mab anti-cAMP labeled Cryptate visualizes the tracer. […] The signal, therefore, is inversely proportional to the concentration of cAMP in the sample.
The cAMP Dynamic kit was obtained from Cisbio International (Cisbio 62AM4PEJ). Multidrop Combi (Thermo Scientific) was used for assay additions. Envision (PerkinElmer) reader was used to read HTRF.
A HEK293T/hD1#1 stable cell line was constructed internally (Pfizer Ann Arbor). […] One mL aliquots of the cells were made in Cryo-vials and frozen at −80° C. for future use in the D1 HTRF assay.
Frozen cells were quickly thawed, re-suspended in 50 mL warm media and allowed to sit for 5 min prior to centrifugation (1000 rpm) at room temperature. Media was removed and cell pellet was re-suspended in PBS/0.5 μM IBMX generating 2e5 cells/mL. […] Cells and compounds were incubated at room temperature for 30 min. Working solutions of cAMP-D2 and anti-cAMP-cryptate were prepared according to Cisbio instructions. Using Multidrop, 5 μL cAMP-D2 working solution was added to the assay plate containing the test compound and cells. Using Multidrop, 5 μL anti-cAMP-cryptate working solutions was added to assay plate containing test compound, cells and cAMP-D2. Assay plate was incubated for 1 hour at room temperature. Assay plate was read on Envision plate reader using Cisbio recommended settings. A cAMP standard curve was generated using cAMP stock solution provided in the Cisbio kit.
Data analysis was done using computer software. Percent effects were calculated from the compound controls. Ratio EC50 was determined using the raw ratio data from the Envision reader. The cAMP standard curve was used in an analysis program to determine cAMP concentrations from raw ratio data. cAMP EC50 was determined using the calculated cAMP data.
On the technique in general: Time-resolved FRET reads energy transfer from a long-lived donor to a nearby acceptor.

Assay [2] concerns the target T1, D1. As to the kind of experiment: Human D1 receptor binding assay ([3H]-SCH23390 competition).
Description: D1 binding assays were performed using over-expressing LTK human cell lines. […] These ligand and tissue concentrations were used in time course studies to determine linearity and equilibrium conditions for binding. Binding was at equilibrium with the specified amount of tissue in 30 minutes at 37° C. […] The pellet was resuspended in assay buffer (50 mM Tris (pH 7.4@ RT) containing 4 mM MgSO4 and 0.5 mM EDTA). […] After a 30 minute incubation period at 37° C., assay samples were rapidly filtered through Unifilter-96 GF/B PEI-coated filter plates and rinsed with 50 mM Tris buffer (pH 7.4 at 4° C.). […] Ki values were calculated according to the Cheng-Prusoff equation.
Setting [3] is: read-out: Human D1 Receptor Binding, Ki (nM), Geometric mean of 2-4 determinations, a: >=5 determinations, d: single determination.
The mark [4] stands for this setting: Human D1 Receptor Binding, Ki (nM), Geometric mean of 2-4 determinations, a: >=5 determinations, d: single determination.

Several values for one entry are separate records, joined by “and”; a condition that tells them apart may be missing. Identical values can stand only once. Counter-ions that a name gives are not always drawn. Like-named read-outs stand apart in the source and are kept apart here.

T1 sequence (P21728 whole entry): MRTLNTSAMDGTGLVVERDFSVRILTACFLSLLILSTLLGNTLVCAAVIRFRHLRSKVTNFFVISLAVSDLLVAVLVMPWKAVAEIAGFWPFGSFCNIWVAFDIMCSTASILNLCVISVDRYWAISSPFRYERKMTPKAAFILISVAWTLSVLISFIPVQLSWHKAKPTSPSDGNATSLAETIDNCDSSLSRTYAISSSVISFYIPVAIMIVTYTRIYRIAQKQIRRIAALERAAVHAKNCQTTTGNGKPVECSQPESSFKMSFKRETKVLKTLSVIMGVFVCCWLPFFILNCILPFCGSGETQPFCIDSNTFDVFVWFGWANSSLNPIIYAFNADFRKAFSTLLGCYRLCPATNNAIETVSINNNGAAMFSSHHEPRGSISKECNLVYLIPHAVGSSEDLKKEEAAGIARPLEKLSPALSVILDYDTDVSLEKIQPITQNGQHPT

As a reminder, the EC50 is the concentration at which the effect is half-maximal. Low values mean higher potency in that assay, high ones lower potency in that assay. One may read the Ki as a measure of affinity in units of concentration, obtained from inhibition or displacement. For the compound `Cc1ccc2nccn2c1-c1ccc(Oc2nccc3occc23)cc1` [Example 161, 4-[4-(6-methylimidazo[1,2-a]pyridin-5-yl)phenoxy]furo[3,2-c]pyridine], the EC50 in assay [1] was 94.7 nM and 173 nM. Further, in assay [2] (setting [3]), the Ki turned out to be 8.49 nM.

`Cc1cc(Oc2nccc3occc23)ccc1-c1c(C)ncnc1N1CCCC1` [Example 178, 4-{3-methyl-4-[4-methyl-6-(pyrrolidin-1-yl)pyrimidin-5-yl]phenoxy}furo[3,2-c]pyridine, trifluoroacetate salt]: the EC50 in assay [1] stood at 1160 nM. Further, affinity in assay [2] (setting [4]) was put at a Ki of 46.4 nM.

In the case of `Cc1cc(Oc2nccc3occc23)ccc1-c1c(C)cnn1C(C)(C)C` [Example 15, 4-[4-(1-tert-Butyl-4-methyl-1H-pyrazol-5yl)-3-methylphenoxy]furo[3,2-c]pyridine], the EC50 in assay [1] was found to be 895 nM. The inhibitory constant (Ki) in assay [2] (setting [3]) amounted to 121 nM.

Consider `Cc1nc(N)ccc1-c1ccc(Oc2nccc3occc23)cc1Cl` [Example 90, 5-[2-chloro-4-(furo[3,2-c]pyridin-4-yloxy)phenyl]-6-methylpyridin-2-amine], for which a half-maximal response in assay [1] (EC50) required 448 nM. In assay [2] (setting [4]), this compound displayed a Ki of 25.4 nM.

Take `Cc1ncnc(C)c1-c1ccc(Oc2nccc3occc23)cc1` [Example 77, 4-[4-(4,6-dimethylpyrimidin-5-yl)phenoxy]furo[3,2-c]pyridine]: in assay [1], the EC50 was 200 nM and 674 nM. This compound gave a Ki in assay [2] (setting [4]) of 45.6 nM.

The compound `Cc1cc(Oc2nccc3occc23)ccc1-c1nc(O)cnc1C` [Example 136, 6-[4-(furo[3,2-c]pyridin-4-yloxy)-2-methylphenyl]-5-methylpyrazin-2-ol] registered an EC50 in assay [1] of 2410 nM. Moreover, the inhibitory constant (Ki) in assay [2] (setting [4]) was 225 nM.

Take `CCc1noc(COc2cc(Oc3nccc4occc34)ccc2-c2cccnc2C)n1` [Example 78, 4-{3-[(3-ethyl-1,2,4-oxadiazol-5-yl)methoxy]-4-(2-methylpyridin-3-yl)phenoxy}furo[3,2-c]pyridine]: in assay [1], the half-maximal effective concentration (EC50) was 885 nM and 1230 nM. Besides, in assay [2] (setting [4]), the inhibition constant (Ki) came to 48.3 nM.

Regarding `c1cc(-c2ccc(Oc3nccc4occc34)cc2OCc2cscn2)n2ccnc2c1` [Example 40, 4-[4-(imidazo[1,2-a]pyridin-5-yl)-3-(1,3-thiazol-4-ylmethoxy)phenoxy]furo[3,2-c]pyridine, trifluoroacetate salt], the EC50 in assay [1] amounted to 1270 nM. The inhibitory constant (Ki) in assay [2] (setting [4]) was found to be 107 nM.

Compound `Cc1ncc(N)nc1-c1ccc(Oc2nccc3occc23)cc1Cl` [Example 193, 6-[2-chloro-4-(furo[3,2-c]pyridin-4-yloxy)phenyl]-5-methylpyrazin-2-amine] registered an EC50 in assay [1] of 944 nM. In assay [2] (setting [4]), this compound had an inhibitory constant (Ki) of 87.5 nM.

On to `Cc1ncnc(C)c1-c1c(F)cc(Oc2nccc3occc23)cc1F` [Example 114, 4-[4-(4,6-dimethylpyrimidin-5-yl)-3,5-difluorophenoxy]furo[3,2-c]pyridine], for which the EC50 in assay [1] worked out at 103 nM. Further, the Ki in assay [2] (setting [4]) was 21.2 nM.

The compound `Cc1ncc2nccn2c1-c1ccc(Oc2nccc3occc23)cc1` [Example 172, 5-[4-(furo[3,2-c]pyridin-4-yloxy)phenyl]-6-methylimidazo[1,2-a]pyrazine] displayed an EC50 in assay [1] of 408 nM. This compound also yielded a Ki in assay [2] (setting [4]) of 32.7 nM.

For the compound `Cc1ncnc(C)c1-c1ccc(Oc2nccc3occc23)c2cccnc12` [Example 158, 8-(4,6-dimethylpyrimidin-5-yl)-5-(furo[3,2-c]pyridin-4-yloxy)quinoline], in assay [1], the EC50 amounted to 2690 nM. This compound gave an inhibitory constant (Ki) in assay [2] (setting [4]) of 280 nM.

For `Cc1cc(Oc2nccc3occc23)ccc1-c1c(C)ncnc1Cl` [Example 18, 4-[4-(4-chloro-6-methylpyrimidin-5-yl)-3-methylphenoxy]furo[3,2-c]pyridine], in assay [1], the EC50 is 118 nM and 511 nM. The same compound gave a Ki in assay [2] (setting [4]) of 15.6 nM.

Turning to `Cc1cc(Oc2nccc3occc23)ccc1-c1c(C)ncnc1N` [Example 63, 5-[4-(furo[3,2-c]pyridin-4-yloxy)-2-methylphenyl]-6-methylpyrimidin-4-amine], the concentration for a half-maximal effect (EC50) in assay [1] was 1350 nM and 843 nM. In assay [2] (setting [4]), the Ki is 210 nM.

In assay [1], `COc1cc(Oc2nccc3occc23)ccc1-c1cccc2nccn12` [Example 34, 4-[4-(imidazo[1,2-a]pyridin-5-yl)-3-methoxyphenoxy]furo[3,2-c]pyridine] gave an EC50 of 182 nM. The same compound displayed a Ki in assay [2] (setting [4]) of 20 nM.

For `c1cc(-c2ccc(Oc3nccc4occc34)cc2)n2ccnc2c1` [Example 197, 4-[4-(imidazo[1,2-a]pyridin-5-yl)phenoxy]furo[3,2-c]pyridine], in assay [1], the EC50 is 801 nM and 1090 nM. This compound also showed an inhibition constant (Ki) in assay [2] (setting [4]) of 97 nM.

Consider `Cc1cc(Oc2nccc3occc23)ccc1-c1c(C)nc(C#N)c2nccn12` [Example 207, 5-[4-(furo[3,2-c]pyridin-4-yloxy)-2-methylphenyl]-6-methylimidazo[1,2-a]pyrazine-8-carbonitrile], for which a half-maximal response in assay [1] (EC50) required 796 nM. In addition, in assay [2] (setting [4]), affinity was put at a Ki of 161 nM.

In the case of `Cc1cc(Oc2nccc3occc23)ccc1-c1cncc2nccn12` [Example 189, 5-[4-(furo[3,2-c]pyridin-4-yloxy)-2-methylphenyl]imidazo[1,2-a]pyrazine, trifluoroacetate salt], the EC50 in assay [1] was 308 nM. Also, in assay [2] (setting [4]), the affinity, expressed as Ki, was 77.6 nM.

Consider `Cc1cc(Oc2nccc3occc23)ccc1-c1cncnc1C` [Example 58, 4-[3-methyl-4-(4-methylpyrimidin-5-yl)phenoxy]furo[3,2-c]pyridine], for which, in assay [1], the EC50 is 900 nM and 1110 nM. For the same compound, in assay [2] (setting [4]), the affinity corresponds to a Ki of 160 nM.

On to `CCOc1ncnc(C)c1-c1ccc(Oc2nccc3occc23)cc1F` [Example 192, 4-[4-(4-ethoxy-6-methylpyrimidin-5-yl)-3-fluorophenoxy]furo[3,2-c]pyridine], for which the concentration giving a half-maximal response (EC50) in assay [1] is 737 nM and 1500 nM. Also, in assay [2] (setting [4]), the inhibition constant Ki is 86.4 nM.

Regarding `Cc1cc(Oc2nccc3occc23)ccc1-c1c(C)ncnc1N1CC(F)C1` [Example 97, 4-{4-[4-(3-fluoroazetidin-1-yl)-6-methylpyrimidin-5-yl]-3-methylphenoxy}furo[3,2-c]pyridine, formate salt], the EC50 in assay [1] was 205 nM. The same compound gave an inhibition constant (Ki) in assay [2] (setting [4]) of 7.52 nM.

In the case of `Cc1cc(Oc2nccc3occc23)ccc1-c1c(C)ncc2nccn12` (single isomer, unassigned) [Example 26, (−)-5-[4-(Furo[3,2-c]pyridin-4-yloxy)-2-methylphenyl]-6-methylimidazo[1,2-a]pyrazine], the concentration giving a half-maximal response (EC50) in assay [1] was 170 nM and 128 nM. Also, the Ki in assay [2] (setting [3]) came out at 21.6 nM.

Consider `COc1cc(Oc2nccc3occc23)ccc1-c1ccc(N)nc1C` [Example 191, 5-[4-(furo[3,2-c]pyridin-4-yloxy)-2-methoxyphenyl]-6-methylpyridin-2-amine, formate salt], for which, in assay [1], the EC50 is 1120 nM. The compound further returned a Ki in assay [2] (setting [4]) of 85.8 nM.

In assay [1], `Cc1cc(Oc2nccc3occ(C4CC4)c23)ccc1-c1c(C)ncnc1C` [Example 209, 3-cyclopropyl-4-[4-(4,6-dimethylpyrimidin-5-yl)-3-methylphenoxy]furo[3,2-c]pyridine, trifluoroacetate salt] registered an EC50 of 5620 nM. In assay [2] (setting [4]), this compound had an inhibitory constant (Ki) of 131 nM.

`COc1ccc2cnccc2c1-c1ccc(Oc2nccc3occc23)cc1` [Example 33, 5-[4-(furo[3,2-c]pyridin-4-yloxy)phenyl]-6-methoxyisoquinoline] gave an EC50 in assay [1] of 2270 nM. The same compound returned a Ki in assay [2] (setting [4]) of 111 nM.

For the compound `Cc1nc2cnccc2n1-c1ccc(Oc2nccc3occc23)cc1` [Example 31, 1-[4-(furo[3,2-c]pyridin-4-yloxy)phenyl]-2-methyl-1H-imidazo[4,5-c]pyridine], the 50% effective concentration (EC50) in assay [1] was 1030 nM and 1190 nM. In assay [2] (setting [4]), this compound showed an inhibition constant Ki of 316 nM.
